The target of the assay is α1(A322D)β2γ2 GABAA receptor (α1 subunit) (Homo sapiens, UniProt P14867+P47870, P14867:A322D). In words: whole-cell patch-clamp peak current at […] GABA, after SAHA treatment. It counts as cell-based. (In general: The patch-clamp technique gives a direct electrical read-out from membranes.)

This is an account of results in PMC3872227 (Chemistry & biology, 2013).

Sequence of α1(A322D)β2γ2 GABAA receptor (α1 subunit) (P14867 28-456 A322D): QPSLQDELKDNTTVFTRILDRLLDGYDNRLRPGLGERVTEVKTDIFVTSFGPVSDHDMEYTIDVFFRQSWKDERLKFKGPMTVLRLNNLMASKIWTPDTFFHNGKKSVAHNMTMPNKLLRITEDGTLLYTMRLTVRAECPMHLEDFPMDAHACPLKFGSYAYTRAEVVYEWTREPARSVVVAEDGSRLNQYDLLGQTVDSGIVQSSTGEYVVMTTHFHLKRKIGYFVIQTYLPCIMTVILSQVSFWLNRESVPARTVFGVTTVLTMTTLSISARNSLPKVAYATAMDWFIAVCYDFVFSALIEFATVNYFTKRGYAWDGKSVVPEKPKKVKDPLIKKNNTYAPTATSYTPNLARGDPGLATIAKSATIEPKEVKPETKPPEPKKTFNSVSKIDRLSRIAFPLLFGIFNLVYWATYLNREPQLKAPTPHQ
Sequence of α1(A322D)β2γ2 GABAA receptor (α1 subunit) (P47870 26-512): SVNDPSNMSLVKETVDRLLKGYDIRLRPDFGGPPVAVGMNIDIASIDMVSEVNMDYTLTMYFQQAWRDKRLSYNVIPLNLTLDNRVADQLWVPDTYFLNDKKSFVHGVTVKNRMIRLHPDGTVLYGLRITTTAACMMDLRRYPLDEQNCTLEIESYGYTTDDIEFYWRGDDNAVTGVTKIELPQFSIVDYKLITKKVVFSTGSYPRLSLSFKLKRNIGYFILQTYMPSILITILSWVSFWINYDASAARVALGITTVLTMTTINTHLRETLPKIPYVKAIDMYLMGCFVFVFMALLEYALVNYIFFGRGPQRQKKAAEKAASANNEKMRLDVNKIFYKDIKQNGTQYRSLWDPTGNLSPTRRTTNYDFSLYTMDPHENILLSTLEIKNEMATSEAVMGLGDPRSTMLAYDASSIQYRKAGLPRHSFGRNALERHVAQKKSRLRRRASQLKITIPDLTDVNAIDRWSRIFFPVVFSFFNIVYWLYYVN
Sequence of α1(A322D)β2γ2 GABAA receptor (α1 subunit) (P18507 40-475 partner): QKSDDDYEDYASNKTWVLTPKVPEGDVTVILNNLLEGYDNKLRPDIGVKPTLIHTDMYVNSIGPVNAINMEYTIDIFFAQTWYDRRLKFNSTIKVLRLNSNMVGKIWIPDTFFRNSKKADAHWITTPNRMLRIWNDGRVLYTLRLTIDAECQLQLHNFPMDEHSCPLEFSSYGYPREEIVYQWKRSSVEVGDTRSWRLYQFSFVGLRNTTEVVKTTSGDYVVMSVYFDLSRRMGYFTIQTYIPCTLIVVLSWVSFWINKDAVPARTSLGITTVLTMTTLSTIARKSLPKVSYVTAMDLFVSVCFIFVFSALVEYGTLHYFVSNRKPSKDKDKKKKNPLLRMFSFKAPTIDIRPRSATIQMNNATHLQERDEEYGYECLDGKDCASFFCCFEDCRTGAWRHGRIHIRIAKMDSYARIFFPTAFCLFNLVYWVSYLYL

Consider `NCCCC(=O)O` [GABA], for which the “whole-cell patch-clamp peak current at 3 mM GABA, after SAHA treatment” value was 14 ± 3 pA.
